Assays:
[1] = system: EL4 cells; test: In vitro MTT viability assay of EL4 cells; assay type: cell-based, mouse; settings: highest concentrations tested, n=3, one-way ANOVA and Tukey HSD
Protocol: Turning now to FIG. 20. FIG. 20 describes the effect of therapeutic agents delivered by EVs of various embodiments as compared to other forms of drug delivery. […] (See, Immordino, et al., Int. J. Nanomedicine 1, 297-315 (2016), the disclosures being incorporated herein by reference.)
EL4 cells were treated over 24 or 48 hours with DOX, DOXIL, DOX-EVs, or unloaded EVs. […] It is important to note that DOX-loaded EVs would not be expected to outperform free DOX in vitro study since their primary benefits (improved biocompatibility and extended release) are critical factors in an in vivo delivery setting.
In vitro viability studies. EL4 cells were plated at 20,000 cells/well in 100 μL of DMEM with 10% FBS. Cells were incubated for 24 hours or 48 hours with the concentrations of DOX, DOXIL or DOX-EVs described in FIG. 20. An MTT assay was performed and cells were incubated with 1 mg/mL of MTT for 1 hour. The crystals were dissolved in 100 μL of DMSO and the absorbance of each well was characterized at 560 nm.
Turning now to FIG. 20. FIG. 20 describes the effect of therapeutic agents delivered by EVs of as compared to other forms of drug delivery. […] (See, Immordino, et al., Int. J. Nanomedicine 1, 297-315 (2016), the disclosures being incorporated herein by reference.)
EL4 cells were treated over 24 or 48 hours with DOX, DOXIL, DOX-EVs, or unloaded EVs. […]

[2] = Biodistribution: drug content of organs 24 hours after treatment; assay type: in vivo, C57BL/6 mice; settings: lung, liver, heart, spleen, tumor
Protocol: Turning to FIG. 21C, serum was collected from C57BL/6 mice treated with DOX, DOXIL or DOX-EVs and analyzed for drug content. Concentration of DOX in the serum (n=3) was measured over 12 hours by a series of blood collections and fluorescence quantifications. […] Twenty-four hours after treatment, the mice were sacrificed and their organs were assessed for drug content.
For pharmacokinetics and biodistribution experiments, tumors were established and mice were treated as described above. Tail vein blood collection was completed at the time points indicated and suspended in acidified alcohol. The blood was analyzed for DOX concentration by fluorescence spectroscopy (ex. 485 nm, em. 595 nm). 24 hours post treatment, the mice were sacrificed and the organs were extracted. The organs were cryopulverized and resuspended in acidified alcohol for fluorescence spectroscopy (ex. 485 nm, em. 595 nm) analysis.

Compound: COc1cccc2c1C(=O)c1c(O)c3c(c(O)c1C2=O)C[C@@](O)(C(=O)CO)C[C@@H]3O[C@H]1C[C@H](N)[C@H](O)[C@H](C)O1 [DOX, doxorubicin]
- Viability of EL4 cells versus controls [1]: statistically significant (p<0.01) from the controls
- Accumulation of drug in organs [2]: tends to accumulate in the lung

Source: US11717480B2, “Extracellular vesicles and methods and uses thereof” (The Regents of the University of California, priority 2016, dated 2023)
